The source of these data is publication PMC10877774, “Development of an UPLC-MS/MS method for quantitative analysis of abexinostat levels in rat plasma and application of pharmacokinetics” (BMC Chemistry, 2024).

A short description of series [1]: Pharmacokinetic study in rats after single gavage dose, plasma levels by UPLC-MS/MS. The format is in vivo, Sprague–Dawley Rats. The procedure: Quantitative analysis was performed using a UPLC-MS/MS system consisting of a Waters Xevo TQ-S triple quadrupole tandem mass spectrometer and a Waters ACQUITY UPLC I-Class system (Milford, MA, USA) used in this experiment. Accurate molecular weight calculations were achieved using an electrospray ionization (ESI) source (Milford, MA, USA) with ultra-high sensitivity. The system was chromatographed on an Acquity BEH C18 column (2.1 mm × 50 mm, 1.7 μm; Milford, MA, USA) at 40 °C with acetonitrile and 0.1% formic acid as mobile phases. Gradient elution was as follows: 0 − 0.5 min (acetonitrile, 10%) and 0.5–1.0 min (acetonitrile, 10–90%), 1.0–1.4 min (acetonitrile, 90%) and 1.4–1.5 min (acetonitrile, 90–10%) at 0.40 mL/min. Finally, the mobile phase was maintained 10% acetonitrile between 1.5 and 2.0 min for equilibration. A 2.0 μL sample was drawn from each vial as the injection volume, and the entire analysis process time was 2.0 min. In UPLC-MS/MS, we used positive ion mode to detect abexinostat and IS with ion transition of m/z 397.93 → 200.19 and 422.01 → 186.11, respectively. 25 eV and 30 V were the collision energy and cone voltage for both.
Plasma protein composition interfered with detection sensitivity. The protein precipitation method in this study was to add acetonitrile to the plasma, and the protein was fully precipitated and then centrifuged. We added 100 μL of the plasma sample along with 10 μL of the IS working solution (concentration of 100 ng/mL) in an Eppendorf (EP) tube. Mixing well and adding acetonitrile at a ratio of 1:3 to precipitate the protein in the EP tube, and centrifuged at 13,000 rpm for 10 min at 4 °C. 100 μL of the supernatant was transferred to an autosampler vial for quantitative analysis by the UPLC-MS/MS system.
Sprague–Dawley Rats Were Provided By The First Affiliated Hospital Of Wenzhou Medical University (Zhejiang, China), And The Animal Study Was Reviewed And Approved By Ethics Committee Of The First Affiliated Hospital of Wenzhou Medical University (WYYY-IACUC-AEC-2023-055). All rats were fasted for 24 h before the experimental animals, and a single gavage dose of 8.00 mg/kg of abexinostat was administered to 6 rats after fasting. At 20 and 40 min, 1, 1.5, 2, 3, 4, 6, 8, 12, 24, and 48 h after gavage, 300 μL of whole blood was collected from the tail vein of the rat and put into heparinized tubes. Then, the blood sample was centrifuged at 8000 rpm for 5 min. 100 μL of plasma was obtained and frozen at − 80 °C for further processing and analysis.
The main parameters of pharmacokinetics were analyzed by Drug and Statistics (DAS, Version 3.0 software, Shanghai University of Traditional Chinese Medicine, China).

A short description of series [2]: Stability of abexinostat in rat plasma under different storage and handling conditions. The class given is in vitro ADME. The note with it: for stability (in words) / stability of plasma samples (in words): RE within ± 15% considered stable; for Stability RE (%): n = 5. The procedure: For the preparation of control and standard curves, we dissolved abexinostat and IS in methanol at a concentration of 1.00 mg/mL. Both the abexinostat working solution and the 100 ng/mL IS working solution were diluted with methanol from their respective stock solutions. The corresponding working solution (10 μL) was diluted tenfold and operated by adding rat blank plasma (90 μL) to obtain a calibration curve with a concentration range of 2.00–100 ng/mL. The concentrations at each point in the standard curve were set to 2.00, 5.00, 10, 20, 50, 100 ng/mL, respectively. Final concentrations of QC samples were 2.00 (lower limit of quantitation, LLOQ), 5.00 (low quality control, LQC), 40 (median quality control, MQC), and 80 (high quality control, HQC) ng/mL.
The principles of the analytical methods in this study were performed in accordance with the FDA’s “Guidance for Industry: Bioanalytical Method Validation” [14], including calibration curves, selectivity, LLOQ, recovery, matrix effects, precision and accuracy, and stability.
Stability experiments to test abexinostat in plasma under different storage and handling conditions were done to investigate whether abexinostat was still stable in rat plasma. The stability test results were in Table 3. […] Furthermore, the assay remained stable in the autosampler (10 °C) for 4 h and 3 h at room temperature. Relative errors (RE) within ± 15% were considered stable by data comparison.

Details of series [3]: method as in PMID 27911138. The note with it: cited from earlier work.
On the set-up of series [4]: method as in PMID 26482040. The note with it: 60 mg/m^2 group; grade 5 acute renal failure, grade 3 long-term diarrhea; cited from earlier work.
On the set-up of series [5]: method as in PMID 28126962. The note with it: patients with follicular lymphoma, T-cell lymphoma, diffuse large B-cell lymphoma, phase II; cited from earlier work.
Where [6] appears, read: Sprague-Dawley, po, rat plasma, intragastric single dose 8.00 mg/kg, n = 6, Mean ± SD.
[7] abbreviates: patients, most common grade 3 treatment-related adverse events.

As a reminder, the AUC(0-inf) is total exposure, with the tail of the curve extrapolated. Broadly, the AUC(0-t) is the area under the concentration-time curve up to a stated or last time point. A low value points to less exposure. As a reminder, the Cmax is the peak of the concentration-time curve. One may read the half-life as the time needed for the level to fall by half in the phase considered. Read a high half-life as slow loss. By Tmax is commonly meant the time at which the peak concentration occurs. The molecule `CN(C)Cc1c(C(=O)NCCOc2ccc(C(=O)NO)cc2)oc2ccccc12` [Abexinostat] came in with an AUC(0-inf) in series [1] (setting [6]) of 0.501 ± 0.0401 µg·h/mL. Further, the AUC(0-t) in series [1] (setting [6]) is 0.461 ± 0.0389 µg·h/mL. The same molecule displayed a Cmax in series [1] (setting [6]) of 0.0282 ± 0.00767 µg/mL. For the same molecule, the half-life in series [1] (setting [6]) was 13.8 ± 2.5 h. For the same molecule, in series [1] (Sprague-Dawley, po, rat plasma, intragastric single dose 8.00 mg/kg, n = 6, Mean ± SD, read-out: CLz/F (converted)), the CL/F is 16 L/h/kg. For the same molecule, the MRT last in series [1] (Sprague-Dawley, po, rat plasma, intragastric single dose 8.00 mg/kg, n = 6, Mean ± SD, read-out: MRT0-t) came to 14.8 ± 0.8 h. Besides, in series [1] (Sprague-Dawley, po, rat plasma, intragastric single dose 8.00 mg/kg, n = 6, Mean ± SD, read-out: MRT0-∞), the MRT inf is 19.1 ± 2.55 h. Further, the Tmax in series [1] (Sprague-Dawley, rat, plasma, po, 8 mg/kg, rat plasma, intragastric single dose 8.00 mg/kg, n = 6, Mean ± SD) is around 1.39 h. For the same molecule, in series [1] (rats, oral administration 8.00 mg/kg, mean concentration–time curve), the “time at which plasma concentration peaks, estimated from Fig. 3” value was “around 1 h”. Further, the “stability (in words)” value in series [2] (3 h at room temperature) and in series [2] (autosampler (10 °C) for 4 h) was “stable” throughout. Further, the “Stability RE (%)” value in series [2] (Autosampler 10 ℃, 4 h, 40 ng/mL) stood at 15.0%; in series [2] (plasma, Room temperature, 3 h, 40 ng/mL), 2.2%; in series [2] (plasma, Room temperature, 3 h, 80 ng/mL), 0.2%; in series [2] (plasma, Three freeze–thaw (− 80 °C/room temperature), 80 ng/mL), 13.8%; in series [2] (plasma, − 80 ℃, 3 weeks, 5.00 ng/mL), 5.4%; in series [2] (plasma, − 80 ℃, 3 weeks, 40 ng/mL), 3.3%. Moreover, the “stability of plasma samples (in words)” value in series [2] (three cycles of full freezing (− 80 °C)/thawing (room temperature)) and in series [2] (− 80 °C for at least 3 weeks) was “stable” in each case. Also, in series [3] (Phase I, various types of leukemia), the “evaluable patients with stable disease” value is reported as 1 out of 12. Moreover, the “grade 3 treatment-related adverse event: neutropenia” value in series [3] (setting [7]) is on record as 24%. Also, in series [3] (setting [7]), the “grade 3 treatment-related adverse event: thrombocytopenia” value is 29%. In addition, the “patients with dose-limited toxicities (DLTs)” value in series [4] is listed as 2/8. The “tumor control (in words)” value in series [5] is given as “durable tumor control”.
